pEC50: −log10 of the molar value.
Molecular target: T1, human mAChR M1 (Homo sapiens, UniProt P11229)
T1 construct: hM1 and hM4 cDNAs were purchased from Missouri S&T cDNA Resource; host or cells: CHO-K1 cells, stably transfected with Lipofectamine2000
T1 sequence (P11229 1-460): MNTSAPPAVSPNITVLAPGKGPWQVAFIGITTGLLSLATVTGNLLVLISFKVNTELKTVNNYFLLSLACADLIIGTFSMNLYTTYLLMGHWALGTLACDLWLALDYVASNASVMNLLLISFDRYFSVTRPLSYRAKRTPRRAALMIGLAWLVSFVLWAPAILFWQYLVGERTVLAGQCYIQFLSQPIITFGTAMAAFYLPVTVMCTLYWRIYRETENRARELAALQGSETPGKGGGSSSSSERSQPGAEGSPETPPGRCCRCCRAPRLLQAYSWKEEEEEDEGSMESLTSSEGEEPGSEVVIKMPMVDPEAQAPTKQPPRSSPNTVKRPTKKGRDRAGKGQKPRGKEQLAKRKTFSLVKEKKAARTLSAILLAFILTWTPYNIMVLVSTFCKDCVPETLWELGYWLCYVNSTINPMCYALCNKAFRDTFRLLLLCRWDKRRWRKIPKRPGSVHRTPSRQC
Test: mAChR M1 cell-based functional assay (calcium mobilization, PAM mode, EC20 acetylcholine)
Settings: CHO-K1 cells expressing hM1, calcium flux (Fluo-4); for Emax: EC20 acetylcholine response; for pEC50: concentration-dependent increase in the EC20 acetylcholine response
Excerpt: Chinese hamster ovary (CHO-K1) cells stably expressing rat (r)M1 were purchased from the American Type Culture Collection and cultured according to their indicated protocol. CHO cells stably expressing human (h)M2, hM3, and hM5 were described previously (Levey, et al., 1991); hM1 and hM4 cDNAs were purchased from Missouri S&T cDNA Resource; rM4 cDNA was provided by T. I. Bonner (National Institutes of Health, Bethesda, Md.). rM2 and rM3 were cloned from a rat brain cDNA library and sequence verified. hM1, rM2, rM3, hM4, and rM4 cDNAs were used to stably transfect CHO-K1 cells purchased from the American Type Culture Collection using Lipofectamine2000. To make stable rM2, hM2, rM3, hM4, and rM4 cell lines for use in calcium mobilization assays, these cells also were stably transfected with a chimeric G-protein (Gqi5) (provided by B. R. Conklin, University of California, San Francisco) using Lipofectamine 2000. rM1, hM1, rM3, hM3, rM5, and hM5 cells were grown in Ham's F-12 medium containing 10% heat-inactivated fetal bovine serum (FBS), 20 mM HEPES, and 50 µg/mL G418 sulfate. rM2-Gqi5, hM2-Gqi5, and hM4-Gqi5 cells were grown in the same medium also containing 500 μg/mL Hygromycin B. Stable rM4-Gqi5 cells were grown in DMEM containing 10% heat-inactivated FBS, 20 mM HEPES, 400 μg/mL G418 sulfate, and 500 μg/mL Hygromycin B.
For high throughput measurement of agonist-evoked increases in intracellular calcium, CHO-K1 cells stably expressing muscarinic receptors were plated in growth medium lacking G418 and hygromycin at 15,000 cells/20 μL/well in Greiner 384-well black-walled, tissue culture (TC)-treated, clear-bottom plates (VWR). Cells were incubated overnight at 37° C. and 5% CO2. The next day, cells were washed using an ELX 405 (BioTek) with four washes (80 μL) of assay buffer then aspirated to 20 μL. Next, 20 μL of 16 μM Fluo-4/acetoxymethyl ester (Invitrogen, Carlsbad, Calif.) prepared as a 2.3 mM stock in DMSO and mixed in a 1:1 ratio with 10% (w/v) Pluronic F-127 and diluted in assay buffer was added to the wells and the cell plates were incubated for 50 min at 37° C. and 5% CO2. Dye was removed by washing with the ELX 405 (four 80 μL washes of assay buffer) then aspirated to 20 μL. Compound master plates were formatted in an 11 point CRC format (1:3 dilutions) in 100% DMSO with a starting concentration of 10 mM using the BRAVO liquid handler (Agilent). Test compound CRCs were then transferred to daughter plates (240 nL) using the Echo acoustic plate reformatter (Labcyte, Sunnyvale, Calif.) and then diluted into assay buffer (40 μL) to a 2× stock using a Thermo Fisher Combi (Thermo Fisher Scientific, Waltham, Mass.).
Calcium flux was measured using the Functional Drug Screening System (FDSS) 6000 (Hamamatsu Corporation, Tokyo, Japan) as an increase in the fluorescent static ratio. Compounds were applied to cells (20 μL, 2×) using the automated system of the FDSS 6000 at 4 s into the 300 s protocol and the data were collected at 1 Hz. […] Agonist activity was analyzed as a concentration-dependent increase in calcium mobilization upon compound addition. Emax values for agonist activity are expressed relative to the maximum for acetylcholine. Positive allosteric modulator activity was analyzed as a concentration-dependent increase in the EC20 acetylcholine response. Antagonist activity was analyzed as a concentration-dependent decrease in the […] acetylcholine response. Concentration-response curves were generated using a four-parameter logistical equation in XLfit curve fitting software (IDBS, Bridgewater, N.J.) for Excel (Microsoft, Redmond, Wash.) or Prism (GraphPad Software, Inc., San Diego, Calif.).
Activity (EC50 and Emax) was determined in the mAChR M1 cell-based functional assay as described above and the data are shown in Table 2. The compound numbers correspond to the compound numbers used in Table 1.

`O=C(N[C@H]1CCOC[C@@H]1O)c1cc(Cc2ccc(-n3cccn3)cc2)cc2cccnc12` [compound 1, N-[(3R,4S)-3-hydroxytetrahydropyran-4-yl]-6-[(4-pyrazol-1-ylphenyl)methyl]quinoline-8-carboxamide] showed an Emax of 80% and a pEC50 of 6.34.
`O=C(N[C@H]1CCCC[C@@H]1O)c1cc(Cc2ccc(-n3cccn3)cc2)cc2cccnc12` [compound 2, N-[(1S,2S)-2-hydroxycyclohexyl]-6-[(4-pyrazol-1-ylphenyl)methyl]quinoline-8-carboxamide] was tested, and the Emax was 81% and the pEC50 was 6.00.
`O=C(NC1CCOCC1)c1cc(Cc2ccc(-n3cccn3)cc2)cc2cccnc12` [compound 3, 6-[(4-pyrazol-1-ylphenyl)methyl]-N-tetrahydropyran-4-yl-quinoline-8-carboxamide] was tested, and the Emax was 45% and the pEC50 was 5.53.
`O=C(NC1CC2(COC2)C1)c1cc(Cc2ccc(-n3cccn3)cc2)cc2cccnc12` [compound 4, N-(2-oxaspiro[3.3]heptan-6-yl)-6-[(4-pyrazol-1-ylphenyl)methyl]quinoline-8-carboxamide] showed an Emax of 67% and a pEC50 of 5.22.
`O=C(N[C@H]1CCC[C@@H]1O)c1cc(Cc2ccc(-n3cccn3)cc2)cc2cccnc12` [compound 5, N-[(1S,2S)-2-hydroxycyclopentyl]-6-[(4-pyrazol-1-ylphenyl)methyl]quinoline-8-carboxamide] was tested, and the Emax was 76% and the pEC50 was 5.78.
In the case of `O=C(N[C@H]1CC[C@@H]1O)c1cc(Cc2ccc(-n3cccn3)cc2)cc2cccnc12` [compound 6, N-[(1S,2S)-2-hydroxycyclobutyl]-6-[(4-pyrazol-1-ylphenyl)methyl]quinoline-8-carboxamide], the Emax was 57% and the pEC50 was 5.26.
In the case of `O=C(N[C@H]1CCCCC[C@@H]1O)c1cc(Cc2ccc(-n3cccn3)cc2)cc2cccnc12` [compound 7, N-[(1S,2S)-2-hydroxycycloheptyl]-6-[(4-pyrazol-1-ylphenyl)methyl]quinoline-8-carboxamide], the Emax was 87% and the pEC50 was 5.69.
`O=C(NCC1CCOCC1)c1cc(Cc2ccc(-n3cccn3)cc2)cc2cccnc12` [compound 8, 6-[(4-pyrazol-1-ylphenyl)methyl]-N-(tetrahydropyran-4-ylmethyl)quinoline-8-carboxamide] showed an Emax of 49% and a pEC50 of 5.09.
Work on `Cn1ccc(-c2ccc(Cc3cc(C(=O)N[C@H]4CCOC[C@@H]4O)c4ncccc4c3)cn2)n1` [compound 9, N-[(3R,4S)-3-hydroxytetrahydropyran-4-yl]-6-[[6-(1-methylpyrazol-3-yl)-3-pyridyl]methyl]quinoline-8-carboxamide] yielded an Emax of 79% and a pEC50 of 6.51.
`Cn1ccc(-c2ccc(Cc3cc(C(=O)N[C@H]4CCCCC[C@@H]4O)c4ncccc4c3)cn2)n1` [compound 10, N-[(1S,2S)-2-hydroxycycloheptyl]-6-[[6-(1-methylpyrazol-3-yl)-3-pyridyl]methyl]quinoline-8-carboxamide] gave an Emax of 84% and a pEC50 of 6.04.
`Cn1ccc(-c2ccc(Cc3cc(C(=O)N[C@H]4CCCC[C@@H]4O)c4ncccc4c3)cn2)n1` [compound 11, N-[(1S,2S)-2-hydroxycyclohexyl]-6-[[6-(1-methylpyrazol-3-yl)-3-pyridyl]methyl]quinoline-8-carboxamide] gave an Emax of 82% and a pEC50 of 6.42.
`Cn1ccc(-c2ccc(Cc3cc(C(=O)N[C@H]4CCC[C@@H]4O)c4ncccc4c3)cn2)n1` [compound 12, N-[(1S,2S)-2-hydroxycyclopentyl]-6-[[6-(1-methylpyrazol-3-yl)-3-pyridyl]methyl]quinoline-8-carboxamide] was tested, and the Emax was 82% and the pEC50 was 5.86.
`Cn1ccc(-c2ccc(Cc3cc(C(=O)N[C@H]4CC[C@@H]4O)c4ncccc4c3)cn2)n1` [compound 13, N-[(1S,2S)-2-hydroxycyclobutyl]-6-[[6-(1-methylpyrazol-3-yl)-3-pyridyl]methyl]quinoline-8-carboxamide] was tested, and the Emax was 75%.
Molecule `Cn1ccc(-c2ccc(Cc3cc(C(=O)NC4CC5(COC5)C4)c4ncccc4c3)cn2)n1` [compound 14, 6-[[6-(1-methylpyrazol-3-yl)-3-pyridyl]methyl]-N-(2-oxaspiro[3.3]heptan-6-yl)quinoline-8-carboxamide] has an Emax of 73% and a pEC50 of 5.28.
Molecule `Cn1ccc(-c2ccc(Cc3cc(C(=O)NC4CCOCC4)c4ncccc4c3)cn2)n1` [compound 15, 6-[[6-(1-methylpyrazol-3-yl)-3-pyridyl]methyl]-N-tetrahydropyran-4-yl-quinoline-8-carboxamide] has an Emax of 66%.
Work on `Cc1nc(-c2ccc(Cc3cc(C(=O)N[C@H]4CCOC[C@@H]4O)c4ncccc4c3)cc2)co1` [compound 16, N-[(3R,4S)-3-hydroxytetrahydropyran-4-yl]-6-[[4-(2-methyloxazol-4-yl)phenyl]methyl]quinoline-8-carboxamide] yielded an Emax of 86% and a pEC50 of 6.36.
`Cc1nc(-c2ccc(Cc3cc(C(=O)N[C@H]4CCCCC[C@@H]4O)c4ncccc4c3)cc2)co1` [compound 17, N-[(1S,2S)-2-hydroxycycloheptyl]-6-[[4-(2-methyloxazol-4-yl)phenyl]methyl]quinoline-8-carboxamide] showed an Emax of 65% and a pEC50 of 5.74.
`Cc1nc(-c2ccc(Cc3cc(C(=O)N[C@H]4CCCC[C@@H]4O)c4ncccc4c3)cc2)co1` [compound 18, N-[(1S,2S)-2-hydroxycyclohexyl]-6-[[4-(2-methyloxazol-4-yl)phenyl]methyl]quinoline-8-carboxamide] was tested, and the Emax was 82% and the pEC50 was 6.11.
`Cc1nc(-c2ccc(Cc3cc(C(=O)N[C@H]4CCC[C@@H]4O)c4ncccc4c3)cc2)co1` [compound 19, N-[(1S,2S)-2-hydroxycyclopentyl]-6-[[4-(2-methyloxazol-4-yl)phenyl]methyl]quinoline-8-carboxamide] showed an Emax of 61% and a pEC50 of 5.66.
For `Cc1nc(-c2ccc(Cc3cc(C(=O)NC4CC5(COC5)C4)c4ncccc4c3)cc2)co1` [compound 20, 6-[[4-(2-methyloxazol-4-yl)phenyl]methyl]-N-(2-oxaspiro[3.3]heptan-6-yl)quinoline-8-carboxamide], the Emax was 48% and the pEC50 was 5.36.
In the case of `Cn1cc2c(-c3cc(F)c(Cc4cc(C(=O)N[C@H]5CCOC[C@@H]5O)c5ncccc5c4)c(F)c3)cccc2n1` [compound 21, 6-[[2,6-difluoro-4-(2-methylindazol-4-yl)phenyl]methyl]-N-[(3R,4S)-3-hydroxytetrahydropyran-4-yl]quinoline-8-carboxamide], the Emax was 67% and the pEC50 was 5.50.

— US20200131159A1, “POSITIVE ALLOSTERIC MODULATORS OF THE MUSCARINIC ACETYLCHOLINE RECEPTOR M1” (Vanderbilt University, priority 2018, published 2020)
